According to patent publication US5756511A, “Method for treating symptoms of a neurodegenerative condition” (Cell Therapeutics, Inc., priority 1995, dated 1998):

Assays:
endogenous APP = experiment: Western Blot of endogenous APP in culture supernatants of SH-SY5Y cells; type: cell-based; conditions: SH-SY5Y incubated 18 hours with 5 nM human TNFA and increasing concentrations of compound
Protocol: This Example illustrates the effect of representative compounds nos. 2576, 2583, 3501, 3577, 4522, 4533, 4535 and 4537 used in the inventive method on endogenous APP expression.
Cell cultures were prepared as in Example 1 using SH-SY5Y human neuroblastoma cells. Culture supernatants from SH-SY5Y cells incubated for 18 hours with 5 nM human TNFA and increasing concentrations of representative compounds identified above were separated on a 4-20% SDS-polyacrylamide gel and transferred to nitrocellulose. The nitrocellulose filter was probed with anti-APP antibody (Boehringer Mannheim, Indpls, Ind.), and the results visualized by Enhanced Chemiluminecence (Amersham Life Sciences, Arlington Heights, Ill.).

[1] = test system: human amyloid precursor protein (APP) promoter; experiment: APP promoter-alkaline phosphatase (pHAPPro. 1) reporter assay in transfected SH-SY5Y cells stimulated with hTNFα; type: cell-based; conditions: SH-SY5Y transfected with pHAPPro. 1; 1 nM hTNFα; increasing concentrations of agent
Protocol: This example is an in vitro assay confirming activity of an ability of representative agents to inhibit APP synthesis by effecting the level of alkaline phosphatase in the culture medium of human neuroblastoma cells, SH-SY5Y (Beidler et al., 1978), expression of which is controlled by a human amyloid precursor protein (APP) promoter.
The SH-SY5Y were transfected with the promoter-alkaline phosphatase reporter gene construct pHAPPro. The transfected cells were prepared as follows:
A DNA fragment comprising nucleotide pairs -660 to +20 of the human APP promoter (Salbaum et al. 1988) was isolate by polymerase chain reaction using human placental DNA as a template. Xba I and ASP718 restriction endonuclease recognition sites were incorporated during amplification to facilitate subcloning upstream of an alkaline phosphatase reporter gene, forming the plasmid pHAPPro. 1, represented in FIG. 1. SH-SY5Y were subsequently transfected with pHAPPro. 1.
Comparing results obtained in this assay to a standard based on alkaline phosphatase expression controlled by a human phosphoglycerol kinase (PGK) promoter, relative to any cytotoxic effects an agent confirms therapeutic efficacy in the inventive method.
In all assays, controls were done in triplicate. Control assays specifically included assays using: 1) unstimulated cells; 2) cells stimulated with 1 nM hTNFαalone; 3) cells stimulated with 1 nM hTNFα and increasing concentrations of agent, as tested for all representative agents; 4) cells stimulated with 1 nM hTNFα and increasing concentrations of vehicle (100% ethanol), corresponding to vehicle concentrations in test agent preparations.
Subsequent validation of all results included repeating tests with an expanded dose range. Results obtained were compared to an agent's inhibition of constituitive promoter for the phosphoglycerol kinase gene and endogenous amyloid precursor protein expression in neuroblastoma cells
SH-SY5Y cells, prepared above, were plated into wells of a 96-well dish at a density of 20,000 cells per well in […] AIM V medium (Gibco/BRL, Gaithersburg, Md.: CAT# 21021-019). Dishes were incubated at 5% CO2 and 37° C. for 12 to 24 hours. […]
Culture medium […] from each well was transferred to a corresponding well of a 96-well ELISA dish and […] 1× SEAP (0.5M diethanolamine (pH 9.8); 0.25 mM MgCl2; 0.01 mM ZnSO4; 10 mM L-homoarginine; 1 mM para-nitrophenyphosphate, Berger et al., 1988.), prepared above, was added to each well. The plates were incubated 10 minutes in 5% CO2 and 37° C., after which the kinetic change in absorbance at 405 nm was measured on a BIOTEK plate reader.
All data were imported into plotting software for analysis. Triplicate data points were averaged and standard error (from mean) was calculated using accepted standards. […]

SMILES | inhibition of expression of endogenous APP (FIG. 3) (endogenous APP) | inhibition of APP expression (FIG. 2) [1]
CCCCCCCCCCNCC(O)CCCCCCCCCn1c(=O)c2c(ncn2C)n(C)c1=O (stereo not drawn) [Compound 2583] | inhibition of APP expression, in a dose-dependent manner | –
Cn1cnc2c1c(=O)n(CCCCCCCCCCC(=O)NCc1ccc3c(c1)OCO3)c(=O)n2C [Compound 4533] | inhibition of APP expression, in a dose-dependent manner | –
COc1cc(CNCC(O)CCCCCCCCCn2c(=O)c3c(ncn3C)n(C)c2=O)cc(OC)c1OC (stereo not drawn) [Compound 3501] | inhibition of APP expression, in a dose-dependent manner | inhibit APP expression in a dose-dependent fashion
COc1cc(NC(=O)CCCCCCCCCCn2c(=O)c3c(ncn3C)n(C)c2=O)cc(OC)c1OC [Compound 4535] | inhibition of APP expression, in a dose-dependent manner | –
CCCCCCCCN(CC(CCCCCCCCCn1c(=O)c2c(ncn2C)n(C)c1=O)OC(C)=O)C(C)=O (stereo not drawn) [Compound 4537] | inhibition of APP expression, in a dose-dependent manner | inhibit APP expression in a dose-dependent fashion
COc1cc(CNC(=O)CCCCCCCCCCn2c(=O)c3c(ncn3C)n(C)c2=O)cc(OC)c1OC [Compound 3577] | inhibition of APP expression, in a dose-dependent manner | inhibit APP expression in a dose-dependent fashion
CCCCCCCCNCC(O)CCCCCCCCCn1c(=O)c2c(ncn2C)n(C)c1=O (stereo not drawn) [Compound 2576] | inhibition of APP expression, in a dose-dependent manner | –
COc1cc(CNC(CO)CCCCCCCCCn2c(=O)c3c(ncn3C)n(C)c2=O)cc(OC)c1OC (stereo not drawn) [Compound 4522] | inhibition of APP expression, in a dose-dependent manner | inhibit APP expression in a dose-dependent fashion
